Patent US9394549B2, “Method for producing useful chemical substance from terephthalic acid potassium salt” (GENARIS, INC., priority 2012, dated 2016)

Test: Solubility of terephthalic acid salts in 1-butanol
Assay type: physicochemical
Settings: organic solvent or mixture, same manner as Example 1
From the text: As just seen above, it was found out that, unlike the dissolution in ethylene glycol, the dissolution in 1-butanol was very poor.

O=C([O-])c1ccc(C(=O)[O-])cc1.[K+].[K+] [Dipotassium terephthalate, dipotassium terephthalate]
solubility: 200 µM

O=C([O-])c1ccc(C(=O)[O-])cc1.[Na+].[Na+] [Disodium terephthalate, disodium terephthalate, reference compound]
solubility: 1900 µM
